Results from PubChem BioAssay AID192 (DTP/NCI, 2004).
Where “and” joins values, the source holds several entries; their conditions need not be identical. Equal entries are not always repeated. Toxic doses and inconclusive results are not listed.

Test system: BDF1 mice, B16 melanoma ip, median survival T/C
Experiment: NCI In Vivo Anticancer Drug Screen. Data for tumor model B16 Melanoma (intraperitoneal) in B6D2F1 (BDF1) mice
Conditions: endpoint: median survival time, higher = longer survival
How it was run: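 Read-out: survival or tumor size, given as treated/control ratio. Controls received vehicle only; animals bore transplantable tumors.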

[1] = dose: 50.0 mg/kg/injection, schedule: Q01DX009 (ip), vehicle: Klucel (hydroxypropylcellulose) (HPC)
[2] = dose: 0.78 mg/kg/injection, schedule: Q01DX009 (ip), vehicle: saline
[3] = dose: 1.56 mg/kg/injection, schedule: Q01DX009 (ip), vehicle: saline
[4] = dose: 6.25 mg/kg/injection, schedule: Q01DX009 (ip), vehicle: saline
[5] = dose: 12.5 mg/kg/injection, schedule: Q01DX009 (ip), vehicle: saline
[6] = dose: 50.0 mg/kg/injection, schedule: Q01DX009 (ip), vehicle: saline with Tween-80
[7] = dose: 100.0 mg/kg/injection, schedule: Q01DX009 (ip), vehicle: saline with Tween-80
[8] = dose: 200.0 mg/kg/injection, schedule: Q01DX009 (ip), vehicle: saline with Tween-80
[9] = dose: 25.0 mg/kg/injection, schedule: Q01DX009 (ip), vehicle: Klucel (hydroxypropylcellulose) (HPC)
[10] = dose: 100.0 mg/kg/injection, schedule: Q01DX009 (ip), vehicle: Klucel (hydroxypropylcellulose) (HPC)
[11] = dose: 12.5 mg/kg/injection, schedule: Q01DX009 (ip), vehicle: Klucel (hydroxypropylcellulose) (HPC)

## CNC(=O)CCN1CCN(CC/C=C2\c3ccccc3Sc3ccc(Cl)cc32)CC1
dose: 0.12 mg/kg/injection, schedule: Q01DX009 (ip), vehicle: saline
  T/C: 105 % of control
dose: 0.51 mg/kg/injection, schedule: Q01DX009 (ip), vehicle: saline
  T/C: 100 % of control
dose: 1.03 mg/kg/injection, schedule: Q01DX009 (ip), vehicle: saline
  T/C: 87 % of control
dose: 2.06 mg/kg/injection, schedule: Q01DX009 (ip), vehicle: saline
  T/C: 95 % of control
dose: 4.12 mg/kg/injection, schedule: Q01DX009 (ip), vehicle: saline
  T/C: 97 % of control

## Nc1ncnc2c1c1c(=O)[nH]cnc1n2C1OC(CO)C(O)C1O (configuration not stated)
[1]
  T/C: 86 % of control

## COc1cc(C(=O)OCCCN2CCOCC2)cc(OC)c1OC
[2]
  T/C: 105 % of control
[3]
  T/C: 110 % of control
dose: 3.12 mg/kg/injection, schedule: Q01DX009 (ip), vehicle: saline
  T/C: 110 % of control
[4]
  T/C: 105 % of control
[5]
  T/C: 110 % of control
dose: 200.0 mg/kg/injection, schedule: Q01DX009 (ip), vehicle: saline
  T/C: 89 % of control

## COc1cccc2c1C(=O)c1c(O)c3c(c(O)c1C2=O)C[C@@](O)(C(C)=O)C[C@@H]3OC1CC(N)C(O)C(C)O1 (some centres not stated)
dose: 0.06 mg/kg/injection, schedule: Q01DX017 (ip), vehicle: clinical formulation
  T/C: 184 % of control
dose: 0.06 mg/kg/injection, schedule: Q05DX010 (ip), vehicle: clinical formulation
  T/C: 160 % of control
dose: 0.12 mg/kg/injection, schedule: Q01DX009 (ip), vehicle: clinical formulation
  T/C: 168 % of control
dose: 0.12 mg/kg/injection, schedule: Q01DX017 (ip), vehicle: clinical formulation
  T/C: 178 % of control
dose: 0.12 mg/kg/injection, schedule: Q05DX010 (ip), vehicle: clinical formulation
  T/C: 165 % of control
dose: 0.13 mg/kg/injection, schedule: Q01DX009 (ip), vehicle: water
  T/C: 189 % of control
dose: 0.2 mg/kg/injection, schedule: Q01DX009 (ip), vehicle: saline
  T/C: 170 % of control
dose: 0.25 mg/kg/injection, schedule: Q01DX009 (ip), vehicle: clinical formulation
  T/C: 192 % of control
dose: 0.25 mg/kg/injection, schedule: Q01DX017 (ip), vehicle: clinical formulation
  T/C: 226 % of control
dose: 0.25 mg/kg/injection, schedule: Q03HX008 (ip), vehicle: saline
  T/C: 152 % of control
dose: 0.25 mg/kg/injection, schedule: Q04DX003 (ip), vehicle: clinical formulation
  T/C: 162 % of control
dose: 0.25 mg/kg/injection, schedule: Q04DX005 (ip), vehicle: clinical formulation
  T/C: 165 % of control
dose: 0.25 mg/kg/injection, schedule: Q05DX010 (ip), vehicle: clinical formulation
  T/C: 237 % of control
dose: 0.39 mg/kg/injection, schedule: Q01DX009 (ip), vehicle: saline
  T/C: 212 % of control
dose: 0.5 mg/kg/injection, schedule: Q01DX009 (ip), vehicle: clinical formulation
  T/C: 292 % of control
dose: 0.5 mg/kg/injection, schedule: Q01DX017 (ip), vehicle: clinical formulation
  T/C: 315 % of control
dose: 0.5 mg/kg/injection, schedule: Q04DX005 (ip), vehicle: clinical formulation
  T/C: 215 % of control
dose: 0.5 mg/kg/injection, schedule: Q05DX010 (ip), vehicle: clinical formulation
  T/C: 235 % of control
dose: 0.5 mg/kg/injection, schedule: Q11DX018 (sc), vehicle: water
  T/C: 100 % of control
[2]
  T/C: 238 % of control
dose: 1.0 mg/kg/injection, schedule: Q01DX001 (ip), vehicle: clinical formulation
  T/C: 223 % of control
dose: 1.0 mg/kg/injection, schedule: Q01DX009 (ip), vehicle: clinical formulation
  T/C: 204 % of control
dose: 1.0 mg/kg/injection, schedule: Q01DX017 (ip), vehicle: clinical formulation
  T/C: 213 % of control
dose: 1.0 mg/kg/injection, schedule: Q04DX003 (ip), vehicle: clinical formulation
  T/C: 217 % of control
dose: 1.0 mg/kg/injection, schedule: Q04DX005 (ip), vehicle: clinical formulation
  T/C: 194 % of control
dose: 1.0 mg/kg/injection, schedule: Q05DX010 (ip), vehicle: clinical formulation
  T/C: 200 % of control
dose: 1.0 mg/kg/injection, schedule: Q11DX018 (sc), vehicle: water
  T/C: 111 % of control
dose: 1.5 mg/kg/injection, schedule: Q01DX001 (ip), vehicle: water
  T/C: 287 % of control
[3]
  T/C: 150 % of control
dose: 2.0 mg/kg/injection, schedule: Q01DX001 (ip), vehicle: clinical formulation
  T/C: 204 % of control
dose: 2.0 mg/kg/injection, schedule: Q01DX009 (ip), vehicle: clinical formulation
  T/C: 187 % of control
dose: 2.0 mg/kg/injection, schedule: Q04DX003 (ip), vehicle: clinical formulation
  T/C: 215 % of control
dose: 2.0 mg/kg/injection, schedule: Q04DX005 (ip), vehicle: clinical formulation
  T/C: 160 % of control
dose: 2.0 mg/kg/injection, schedule: Q05DX010 (ip), vehicle: clinical formulation
  T/C: 110 % of control
dose: 3.0 mg/kg/injection, schedule: Q01DX001 (ip), vehicle: water
  T/C: 287 % of control
dose: 4.0 mg/kg/injection, schedule: Q01DX001 (ip), vehicle: clinical formulation
  T/C: 285 % of control
dose: 6.0 mg/kg/injection, schedule: Q01DX001 (ip), vehicle: water
  T/C: 94 % of control and 103 % of control
dose: 7.5 mg/kg/injection, schedule: Q01DX001 (ip), vehicle: water
  T/C: 107 % of control and 122 % of control
dose: 10.0 mg/kg/injection, schedule: Q01DX001 (ip), vehicle: water
  T/C: 110 % of control

## O=C(Nc1ccccc1)Nc1cccc(Cl)c1
[6]
  T/C: 100 % of control
[7]
  T/C: 98 % of control
[8]
  T/C: 96 % of control

## CC(=O)OC1CCC(C2CCCCC2)CC1 (configuration not stated)
[7]
  T/C: 111 % of control
[8]
  T/C: 118 % of control

## CC(C)(N)Cc1ccc(Cl)cc1
[4]
  T/C: 110 % of control
[5]
  T/C: 90 % of control
dose: 25.0 mg/kg/injection, schedule: Q01DX009 (ip), vehicle: saline
  T/C: 97 % of control
dose: 50.0 mg/kg/injection, schedule: Q01DX009 (ip), vehicle: saline
  T/C: 100 % of control
dose: 100.0 mg/kg/injection, schedule: Q01DX009 (ip), vehicle: saline
  T/C: 100 % of control

## CCOC(=O)CCCc1c[nH]c2ccccc12
[7]
  T/C: 107 % of control
dose: 100.0 mg/kg/injection, schedule: Q04DX003 (ip), vehicle: saline with Tween-80
  T/C: 109 % of control
[8]
  T/C: 115 % of control
dose: 200.0 mg/kg/injection, schedule: Q04DX003 (ip), vehicle: saline with Tween-80
  T/C: 93 % of control
dose: 400.0 mg/kg/injection, schedule: Q01DX009 (ip), vehicle: saline with Tween-80
  T/C: 107 % of control
dose: 400.0 mg/kg/injection, schedule: Q04DX003 (ip), vehicle: saline with Tween-80
  T/C: 95 % of control

## CNC(=O)Nc1ccc(Cl)cc1C
[9]
  T/C: 95 % of control
[1]
  T/C: 97 % of control
[10]
  T/C: 92 % of control and 121 % of control

## CC(=O)OCC1OC(OC2=C(CC=C(C)C)C(=O)c3ccccc3C2=O)C(OC(C)=O)C(OC(C)=O)C1OC(C)=O (configuration not stated)
dose: 6.25 mg/kg/injection, schedule: Q01DX009 (ip), vehicle: Klucel (hydroxypropylcellulose) (HPC)
  T/C: 95 % of control and 98 % of control
[11]
  T/C: 87 % of control
[9]
  T/C: 87 % of control
[1]
  T/C: 88 % of control and 91 % of control
[10]
  T/C: 92 % of control

## CC(NC(=O)C1CCCN1C(=O)OCc1ccccc1)C(=O)O (configuration not stated)
[6]
  T/C: 91 % of control
[7]
  T/C: 90 % of control

## OC1CCCC2CCC[N-]C12.OC1CCCC2CCC[N-]C12.[Mn+2] (configuration not stated)
[11]
  T/C: 109 % of control
[9]
  T/C: 95 % of control
[1]
  T/C: 105 % of control
[10]
  T/C: 94 % of control
dose: 200.0 mg/kg/injection, schedule: Q01DX009 (ip), vehicle: Klucel (hydroxypropylcellulose) (HPC)
  T/C: 98 % of control

## CC1(C)N=C(N)N=C(N)N1c1cccc(Cl)c1
dose: 5.0 mg/kg/injection, schedule: Q01DX009 (ip), vehicle: saline
  T/C: 115 % of control
dose: 10.0 mg/kg/injection, schedule: Q01DX009 (ip), vehicle: saline
  T/C: 115 % of control
dose: 10.0 mg/kg/injection, schedule: Q04DX003 (ip), vehicle: saline
  T/C: 118 % of control
dose: 20.0 mg/kg/injection, schedule: Q01DX009 (ip), vehicle: saline
  T/C: 120 % of control
dose: 20.0 mg/kg/injection, schedule: Q04DX003 (ip), vehicle: saline
  T/C: 117 % of control
dose: 40.0 mg/kg/injection, schedule: Q01DX009 (ip), vehicle: saline
  T/C: 120 % of control

## OCC1OCCO1
[7]
  T/C: 96 % of control
[8]
  T/C: 93 % of control

## O=C(CCN1CC1)OCCOC(=O)CCN1CC1
dose: 1.5 mg/kg/injection, schedule: Q01DX009 (ip), vehicle: saline
  T/C: 118 % of control
dose: 3.0 mg/kg/injection, schedule: Q01DX009 (ip), vehicle: saline
  T/C: 110 % of control
